Assay results as given in patent publication US20100247593A1, “NOVEL COMPOUNDS AND PHARMACEUTICAL PREPARATIONS” (priority 2007, published 2010).

What was measured:
[1] = Stability in CDCl3 solution according to NMR spectra; format: physicochemical; conditions: CDCl3, 25° C.
Experimental: NMR spectra were recorded with a Varian UNITY INOVA 600 MHz spectrometer equipped with a cryoprobe in CDCl3 solution at 25° C. Chemical shifts are reported in ppm relative to residual solvent signal (δ(^1H) 7.25 ppm, δ(^13C) […]). Two-dimensional spectra recorded included DQF-COSY, NOESY, TOCSY, sensitivity-enhanced ^13C-HSQC and ^13C-^1H HMBC. Pulsed-field gradients were used for all ^13C correlation spectra. The NOESY mixing time was 800 ms, the TOCSY one 70 ms. ^13C-HMBC spectra were recorded with coupling evolution delay for the generation of multiple-bond correlations set to 62.5 ms. All 2D spectra were run with 4096*1024 points data matrix, giving τ2max=250 ms for ^1H nucleus in acquisition dimension and τ1max=100 ms for ^1H or τ1max=50 ms for ^13C for indirect dimension. Prior to Fourier transform the data matrix was zero-filled twice and multiplication by shifted sine-bell window function applied. For ^1H-^13C HMBC the magnitude spectra were calculated. Graphs from the spectra recorded are shown in drawing section FIGS. 15-27.

male mice = test: Mice sexual behaviour test (number of mounts); format: in vivo

For `COC(=O)CC1C2(C)CC34OC5(C)OC67C(C(C(=O)C(C)C)C(=O)OC6C3(O)C2OC(C)=O)C(C)(C(OC(C)=O)c2ccoc2)CCC7(O5)C14C` (stereo not drawn) [R310], the “stability in CDCl3 solution according to the NMR spectra” value [1] was “consisted of two isomers which slowly interchanged”, the “sexual activity (number of mounts over a 3 hour period)” value (male mice; subcutaneous in sun flower-oil x3 days, highest dose (4 mg/kg), all days tested (D-4, D-7, D-14)) was “Significant increases” and the “sexual activity (number of mounts over a 3 hour period)” value (male mice; subcutaneous x3 days, two lower doses (0.4 and 0.04 mg/kg)) was “significantly increased only on D-4”.
In the case of `COC(=O)CC1C2(C)CC34OC5(C)OC67C(CC(=O)OC6C3(OC(=O)C(C)C)C2OC(=O)C(C)C)C(C)(C(=O)c2ccoc2)CCC7(O5)C14C` (stereo not drawn) [R306], the “stability in CDCl3 solution according to the NMR spectra” value [1] is reported as “stable during several weeks”, the “increase of number of mounts counted during the 3 hour period” value (male mice; subcutaneous 0.4 mg/kg x3 days, D4) is reported as “about 3.5 fold” and the “sexual activity (number of mounts over a 3 hour period)” value (male mice; subcutaneous in sun-flower oil x3 days, lowest dose (0.004 mg/kg)) is reported as “tendency of increase”. The “sexual activity (number of mounts over a 3 hour period)” value (male mice; subcutaneous in sun-flower oil x3 days, two highest doses (0.4 and 0.04 mg/kg), D-4, D-7, D-14) was “significant increases”, the “activity (Umnt) = 1/EC50” value (male mice; subcutaneous x3 days, 7th day as basis) was “about 15 U/mg” and the “time course of the effect on number of mounts” value (male mice; subcutaneous x3 days, tested D-4, D-7, D-14) was “peaked at D7, while clear effects were seen also at D14”.
